Results: patent US12129312B2, “Peptide compound, application thereof and composition containing same” (priority 2017, dated 2024)
Square brackets hold non-standard residues; d marks the D form. Peptide text beside a SMILES is read from it. * marks the point of attachment. Pro(5R-Ph) = O=C(O)[C@@H]1CC[C@H](c2ccccc2)N1; Benzoyl(3,5-(OH)2) = O=C(c1cc(O)cc(O)c1)*; PEG8 = NCCOCCOCCOCCOCCOCCOCCOCCOCCC(=O)O; Gly(Nα-CH2CH2CONH2) = NC(=O)CCNCC(=O)O; 1Nal = N[C@@H](Cc1cccc2ccccc12)C(=O)O; 2Nal = N[C@@H](Cc1ccc2ccccc2c1)C(=O)O; X10 = CN(C)[C@H](Cc1ccc(O)cc1)C(=O)*; dNMeY = CN[C@H](Cc1ccc(O)cc1)C(=O)O; Cyclohexylacetyl = O=C(CC1CCCCC1)*; Hydrocinnamoyl = O=C(CCc1ccccc1)*; Myristoyl = CCCCCCCCCCCCCC(=O)*; Tic = O=C(O)[C@@H]1Cc2ccccc2CN1; NMeL = CN[C@@H](CC(C)C)C(=O)O; NMeS = CN[C@@H](CO)C(=O)O; Pip = O=C(O)[C@@H]1CCCCN1; Thz = O=C(O)[C@@H]1CSCN1; βAla = NCCC(=O)O

Target: T1, human Chemokine like receptor 1 (Homo sapiens, UniProt Q99788)
T1 construct: host or cells: U2OS (Tango CMKLR1-bla U2OS)
T1 sequence (Q99788 1-373): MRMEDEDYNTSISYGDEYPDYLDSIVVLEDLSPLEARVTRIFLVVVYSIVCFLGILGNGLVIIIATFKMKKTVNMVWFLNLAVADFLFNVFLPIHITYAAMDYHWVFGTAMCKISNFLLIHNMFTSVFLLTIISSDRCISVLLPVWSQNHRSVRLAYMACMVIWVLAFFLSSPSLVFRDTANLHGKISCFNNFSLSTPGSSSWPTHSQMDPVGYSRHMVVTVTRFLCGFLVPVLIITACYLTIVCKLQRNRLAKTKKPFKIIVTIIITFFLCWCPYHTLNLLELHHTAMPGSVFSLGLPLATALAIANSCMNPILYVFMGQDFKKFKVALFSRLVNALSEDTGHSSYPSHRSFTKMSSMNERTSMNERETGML
Experiment: Activation of Tango CMKLR1-bla U2OS cells (beta-lactamase FRET reporter)
Type: cell-based
Conditions: determination by the method of Effect Embodiment 1; read-out: EC50
Description: The polypeptide sequences described above are the polypeptide sequences disclosed in the patent JP2010-229093A of BANYU PHARMA CO LTD: (D-Tyr)-Phe-Leu-Pro-(D-Ser)-Gln-Phe-(D-Ala)-Tic-Ser was used as a positive control (SEQ ID NO: 102).
The activation of the compound on Tango™ CMKLR1-bla U2OS cells (Invitrogen Cat. nos. K1551) was tested.
The activation of each compound in the above experiments on Tango™ CMKLR1-bla U2OS cells was determined as follows:
Day 1: Cell Seeding on Plate
2. The medium was removed, and the cells were washed with DPBS twice, followed by addition of 3 mL of 0.05% trypsin, and placed in a 37° C., 5% CO2 incubator (Thermo Fisher, Waltham, Massachusetts, USA) for 3-5 minutes. After the cells were rounded, 3-5 mL of medium (medium formula: DMEM 90%, Dialyzed FBS 10%, NEAA 0.1 mM, HEPES (pH 7.3) 25 mM, Penicillin 100 U/mL, Streptomycin 100 μg/mL) was added to terminate digestion.
2. The digested cells were transferred to a 15 mL centrifuge tube (430790, Corning), centrifuged at 1000 rpm for 5 minutes (5810R, Eppendorf, Hamburg, Germany), and the supernatant was discarded.
3. 7 mL of medium (DMEM+10% FBS) was added, blowed into a single cell suspension, counted by a cell counter, and adjusted the cell suspension to a desired cell density of 250,000/mL with the medium.
4. The cell suspension was seeded into a 384-well cell plate (Corning 3712) in 40 μL/well to make the number of cells 10000 cells/well, and 32 μL of medium was added to the blank control.
5. The incubation was performed overnight at 37° C. under 5% CO2.
Day 2: Dosing and Testing
1. Preparation of 200× Compound Plate
1.1 The test compound was formulated into a 10 mM working solution in DMSO.
1.2 45 μL of 10 mM test compound was added to the 2nd column of rows A to P in the Echo-384 well plate. The compound was subjected to a 3-fold dilution with Precision (30 μL of DMSO was added to the 3rd to 11th columns; 15 μL of the drug solution was pipetted from the 2nd column to the 3rd column, blown and evenly mixed; then 15 μL of the drug solution was pipetted from the 3rd column to the 4th column, blown and evenly mixed; the drugs was subjected to a 3-fold dilution to obtain 10 concentrations in total). The 1st and 12th columns of the Echo-384 well plate were supplemented with 30 μL of DMSO.
2. Preparation of Intermediate Plate
500 nL, i.e., 0.5 μL of the diluted compound (or DMSO) in the 200× compound plate was transferred into the corresponding position of V-bottom 384-well plate with Echo. 20 μL of medium was added to each well, centrifuged, shaken and evenly mixed. The concentration of the drugs in each well of the 2nd to 11th column of intermediate plate (i.e., 5× compound plate) were shown in following Table 4.
3.1 The cell plate was taken out from the incubator and observed under a microscope. The diluted compound or DMSO in the intermediate plate was added to the cell plate in 10 μL/well in the corresponding cell plate, and 40 μL of medium was pre-filled in each well.
3.2 The cells were incubated at 37° C. under 5% CO2 for 4 hours.
4.1 1 mM CCF4-AM, solution B, Solution C, and Solution D were used to prepare an appropriate amount of 6× detection solution. The LiveBLAzer™-FRET B/G Loading kit (K1095, Thermo Fisher, Waltham, Massachusetts, USA) kit containing CCF-4AM and solutionB, solutionC, and solutionD was also purchased from invitrogen (K1157, Thermo Fisher, Waltham, Massachusetts, USA).
4.2 The cells were observed under a microscope and the cell plate was equilibrated to room temperature.
4.3 6 μL of CCF-4AM dissolved solution A, 60 μL of solution B, 904 μL of solution C and 30 μL of solution D were pipetted in an EP tube, blown, and evenly mixed to obtain a 6× detection solution. The prepared 6× detection solution was pipetted to a 384-well plate in 10 μL/well.

| EC50 [nM] | SMILES |
| --- | --- |
| > 50000 | CC(C)C[C@H](NC(=O)[C@H](Cc1ccccc1)NC(=O)[C@H](N)Cc1ccc(O)cc1)C(=O)N1CCC[C@H]1C(=O)N[C@H](CO)C(=O)N[C@@H](CCC(N)=O)C(=O)N[C@@H](Cc1ccccc1)C(=O)N[C@H](C)C(=O)N1CCCC[C@H]1C(=O)N[C@@H](CO)C(=O)O [YW-90, (D-Tyr)-Phe-Leu-Pro-(D-Ser)-Gln-Phe-(D-Ala)-HoPro-Ser-OH] (H-[dY]FLP[dS]QF[dA][Pip]S-OH) |
| 1.2 | CC(C)C[C@@H](C(=O)N1CCC[C@H]1C(=O)N[C@H](CO)C(=O)N[C@@H](CCC(N)=O)C(=O)N[C@@H](Cc1ccccc1)C(=O)N[C@H](C)C(=O)N1Cc2ccccc2C[C@H]1C(=O)N[C@@H](CO)C(=O)O)N(C)C(=O)[C@H](Cc1ccccc1)NC(=O)[C@@H](Cc1ccc(O)cc1)NC(=O)CC1CCCCC1 [YW-194, (2-Cyclohexylacetyl)-(D-Tyr)-Phe-(NMe-Leu)-Pro-(D-Ser)-Gln-Phe-(D-Ala)-Tic-Ser] (Cyclohexylacetyl-[dY]F[NMeL]P[dS]QF[dA][Tic]S-OH) |
| 170 | CC(C)C[C@H](NC(=O)[C@H](Cc1ccccc1)NC(=O)[C@H](N)Cc1ccc(O)cc1)C(=O)N1[C@@H](c2ccccc2)CC[C@H]1C(=O)N[C@H](CO)C(=O)N[C@@H](CCC(N)=O)C(=O)N[C@@H](Cc1ccccc1)C(=O)N[C@H](C)C(=O)N1Cc2ccccc2C[C@H]1C(=O)N[C@@H](CO)C(=O)O [YW-112, (D-Tyr)-Phe-Leu-Pro(5Ph)-(D-Ser)-Gln-Phe-(D-Ala)-Tic-Ser-OH] (H-[dY]FL[Pro(5R-Ph)][dS]QF[dA][Tic]S-OH) |
| 1.4 | CCCCCCCCCCCCCC(=O)NCCOCCOCCOCCOCCOCCOCCOCCOCCC(=O)NCCC(=O)NCCC(=O)N(C)[C@H](Cc1ccc(O)cc1)C(=O)N[C@@H](Cc1ccccc1)C(=O)N(C)[C@@H](CC(C)C)C(=O)N1CCC[C@H]1C(=O)N[C@H](CO)C(=O)N[C@@H](CCC(N)=O)C(=O)N[C@@H](Cc1ccc2ccccc2c1)C(=O)N[C@H](C)C(=O)N1Cc2ccccc2C[C@H]1C(=O)N(C)[C@@H](CO)C(=O)O [YW-180, Tetradecanoyl-PEG8-βAla-βAla-(D-NMe-Tyr)-Phe-(NMe-Leu)-Pro-(D-Ser)-Gln-2Nal-(D-Ala)-Tic-(NMe-Ser)] ({Myristoyl-PEG8-βAla-βAla}-[dNMeY]F[NMeL]P[dS]Q[2Nal][dA][Tic][NMeS]-OH) |
| 0.8 | CN[C@H](Cc1ccc(O)cc1)C(=O)N[C@@H](Cc1ccccc1)C(=O)N(C)[C@@H](CC(C)C)C(=O)N1CCC[C@H]1C(=O)N[C@H](CO)C(=O)N[C@@H](CCC(N)=O)C(=O)N[C@@H](Cc1ccc2ccccc2c1)C(=O)N[C@H](C)C(=O)N1Cc2ccccc2C[C@H]1C(=O)N[C@@H](CO)C(=O)O [YW-167, (D-NMe-Tyr)-Phe-(NMe-Leu)-Pro-(D-Ser)-Gln-2Nal-(D-Ala)-Tic-Ser-OH] (H-[dNMeY]F[NMeL]P[dS]Q[2Nal][dA][Tic]S-OH) |
| 1.3 | CN[C@H](Cc1ccc(O)cc1)C(=O)N[C@@H](Cc1ccccc1)C(=O)N(C)[C@@H](CC(C)C)C(=O)N1CSC[C@H]1C(=O)N[C@H](CO)C(=O)N[C@@H](CCC(N)=O)C(=O)N[C@@H](Cc1ccccc1)C(=O)N[C@H](C)C(=O)N1Cc2ccccc2C[C@H]1C(=O)N(C)[C@@H](CO)C(=O)O [YW-124, (NMe-D-Tyr)-Phe-(NMe-Leu)-Thz-(D-Ser)-Gln-Phe-(D-Ala)-Tic-(NMe-Ser)-OH] (H-[dNMeY]F[NMeL][Thz][dS]QF[dA][Tic][NMeS]-OH) |
| 1.2 | CN[C@H](Cc1ccc(O)cc1)C(=O)N[C@@H](Cc1ccccc1)C(=O)N(C)[C@@H](CC(C)C)C(=O)N1CCC[C@H]1C(=O)N[C@H](CO)C(=O)N[C@@H](CCC(N)=O)C(=O)N[C@@H](Cc1cccc2ccccc12)C(=O)N[C@H](C)C(=O)N1Cc2ccccc2C[C@H]1C(=O)N[C@@H](CO)C(=O)O [YW-168, (D-NMe-Tyr)-Phe-(NMe-Leu)-Pro-(D-Ser)-Gln-1Nal-(D-Ala)-Tic-Ser-OH] (H-[dNMeY]F[NMeL]P[dS]Q[1Nal][dA][Tic]S-OH) |
| > 50000 | CC(C)C[C@H](NC(=O)[C@H](Cc1ccccc1)NC(=O)[C@H](N)Cc1ccc(O)cc1)C(=O)N1CCC[C@H]1C(=O)N[C@H](CO)C(=O)N(CCC(N)=O)CC(=O)N[C@@H](Cc1ccccc1)C(=O)N[C@H](C)C(=O)N1Cc2ccccc2C[C@H]1C(=O)N[C@@H](CO)C(=O)O [YW-108, (D-Tyr)-Phe-Leu-Pro-(D-Ser)-NGln-Phe-(D-Ala)-Tic-Ser-OH] (H-[dY]FLP[dS][Gly(Nα-CH2CH2CONH2)]F[dA][Tic]S-OH) |
| 3 | CC(C)C[C@@H](C(=O)N1CCC[C@H]1C(=O)N[C@H](CO)C(=O)N[C@@H](CCC(N)=O)C(=O)N[C@@H](Cc1ccccc1)C(=O)N[C@H](C)C(=O)N1Cc2ccccc2C[C@H]1C(=O)N[C@@H](CO)C(N)=O)N(C)C(=O)[C@H](Cc1ccccc1)NC(=O)[C@@H](Cc1ccc(O)cc1)NC(=O)CCc1ccccc1 [YW-161, 3-phenylpropanoyl-(D-Tyr)-Phe-(NMe-Leu)-Pro-(D-Ser)-Gln-Phe-(D-Ala)-Tic-Ser-NH2] (Hydrocinnamoyl-[dY]F[NMeL]P[dS]QF[dA][Tic]S-NH2) |
| 4.7 | CC(C)C[C@H](NC(=O)[C@H](Cc1ccccc1)NC(=O)[C@@H](Cc1ccc(O)cc1)NC(=O)c1cc(O)cc(O)c1)C(=O)N1CCC[C@H]1C(=O)N[C@H](CO)C(=O)N[C@@H](CCC(N)=O)C(=O)N[C@@H](Cc1ccccc1)C(=O)N[C@H](C)C(=O)N1Cc2ccccc2C[C@H]1C(=O)N[C@@H](CO)C(=O)O [YW-79, 3,5-dihydroxybenzoyl-(D-Tyr)-Phe-Leu-Pro-(D-Ser)-Gln-Phe-(D-Ala)-Tic-Ser-OH] ({Benzoyl(3,5-(OH)2)}-[dY]FLP[dS]QF[dA][Tic]S-OH) |
| 2.6 | CC(C)C[C@@H](C(=O)N1CCC[C@H]1C(=O)N[C@H](CO)C(=O)N[C@@H](CCC(N)=O)C(=O)N[C@@H](Cc1ccccc1)C(=O)N[C@H](C)C(=O)N1Cc2ccccc2C[C@H]1C(=O)N[C@@H](CO)C(=O)O)N(C)C(=O)[C@H](Cc1ccccc1)NC(=O)[C@@H](Cc1ccc(O)cc1)N(C)C [YW-192, DiMe-(D-Tyr)-Phe-(NMe-Leu)-Pro-(D-Ser)-Gln-Phe-(D-Ala)-Tic-Ser] (X10-F[NMeL]P[dS]QF[dA][Tic]S-OH) |
| 5 | CC(C)C[C@H](NC(=O)[C@H](Cc1ccccc1)NC(=O)[C@H](N)Cc1ccc(O)cc1)C(=O)N1CSC[C@H]1C(=O)N[C@H](CO)C(=O)N[C@@H](CCC(N)=O)C(=O)N[C@@H](Cc1ccccc1)C(=O)N[C@H](C)C(=O)N1Cc2ccccc2C[C@H]1C(=O)N[C@@H](CO)C(=O)O [YW-114, (D-Tyr)-Phe-Leu-Thz-(D-Ser)-Gln-Phe-(D-Ala)-Tic-Ser-OH] (H-[dY]FL[Thz][dS]QF[dA][Tic]S-OH) |
